For assay [1], the system named is NCI-H460, human non-small cell lung cancer cells. Put plainly: Cell-MTS cellular proliferation assay, NCI-H460. The format is cell-based. Particulars: Homo sapiens, 168 hr incubation. The protocol:
(§1) A colorimetric cellular proliferation assay (Cell-MTS assay) was performed to assess the ability of the heterocyclic derivative […] inhibitors disclosed herein to effect the proliferation of established cancer cell lines.
(§2) The Cell-MTS assay is a 7-day plate-based colorimetric assay which quantifies the amount of newly generated NADH in the presence or absence of test compound. The NADH level is used for the quantification of cancer cell proliferation.
(§3) Established cancer cell lines with a variety of driving mutations were obtained from American Type Culture Collection (ATCC) and routinely passaged according to ATCC protocols. For routine assay, these cells were seeded at densities which enabled ˜90% confluence after 7 days of culture. Raji, human Burkitts lymphoma cells, (cMYC) were seeded at 15,000 cells per 96-well. HL-60, human proleukemia cells, (NRAS, p16, p53, c-Myc amplified) were seeded at 5,000 cells per 96-well. NCI-H460, human non-small cell lung cancer cells. (KRAS, PIK3CA, STLK11, p16) were seeded at 3,000 cells per 96-well. 24 hr after plating, cells received an 11 point dilution of test compound with final concentration ranges from 100 µM to 2.0 nM. Cells were incubated in the presence of compound for 168 hr at 37° C., and 5% CO2. At the end of this incubation period, 80 µL of media is removed and 20 µL of CellTiter 96® AQueous Non-Radioactive Cell Proliferation Assay solution (Promega) was added. The cells were incubated until the OD490 was >0.6. IC50 values were calculated using the IDBS XLfit software package and include background subtracted OD490 values and normalization to DMSO controls. Cellular proliferation IC50 values were uploaded and archived using the Chem Biography Platform. Table 3 provides the results of the in vitro enzyme inhibition assay experiments and the in vitro cell-based assay experiments performed with the compounds disclosed herein: […]
(Tetrazolium assays rely on reduction of a dye to a coloured formazan, in cell work by metabolically active cells.)

Assay [2] deals with BRD4(BD1) (Homo sapiens (Human), UniProt O60885). Put plainly: In vitro enzyme inhibition assay (BRD4 AlphaScreen, H4-tetraacetyl peptide). Type of assay: binding. Conditions: BRD4(BD1) 2 nM, peptide 15 nM. The protocol: Determination of the IC50 for the heterocyclic derivative BRD4 inhibitors disclosed herein was performed as follows. His-tagged […] was cloned, expressed and purified to homogeneity. Filipakopoulos et al., 468 Nature 1067 (2010). BRD4 binding and inhibition was assessed by monitoring the interaction of biotinylated H4-tetraacetyl peptide (AnaSpec, H4K5/8/12/16(Ac), biotin—labeled) with the target using the AlphaScreen technology (Life Technologies). In a 384-well ProxiPlate BRD4(BD1) (2 nM final) was combined with peptide (15 nM final) in 50 mM HEPES (pH 7.3), 10 mM NaCl, 0.25 mM TCEP, 0.1% (w/v) BSA, and 0.005% (w/v) Brij-35 either in the presence of DMSO (final 0.4% DMSO) or compound dilution series in DMSO. After 20 min incubation at RT, Alpha streptavidin donor beads and Nickel Chelate acceptor beads were added to a final concentration of 5 μg/mL. After 2 hr of equilibration, plates were read on an Envision instrument and the IC50 was calculated using a four parameter non-linear curve fit.
The ability of the compounds disclosed herein to inhibit BRD4 activity was quantified and the respective IC50 value was determined.
On the technique in general: In Alpha technology, singlet oxygen from a donor bead excites a nearby acceptor bead.

Assay [3] relates to Raji, human Burkitts lymphoma cells. Description: Cell-MTS cellular proliferation assay, Raji. Conditions: Homo sapiens, 168 hr incubation. Type of assay: cell-based. The protocol:
as §1, §2, §3

Assay [4] has as its system HL-60, human proleukemia cells. Put plainly: Cell-MTS cellular proliferation assay, HL-60. Type of assay: cell-based. Particulars: Homo sapiens, HL-60 cells, 168 hr incubation. The protocol:
as §1, §2, §3

Broadly, the IC50 is the midpoint of a concentration-inhibition curve.

For the molecule `Cc1cc(-c2cc(NS(C)(=O)=O)c3oc(=O)n(CC4CC4)c3c2)cn(C)c1=O` [Example 101, N-[3-(cyclopropylmethyl)-5-(1,5-dimethyl-6-oxopyridin-3-yl)-2-oxo-1,3-benzoxazol-7-yl]methanesulfonamide], the IC50 in assay [1] is above 5000 nM; in assay [2], at most 500 nM; in assay [3], 500 to 5000 nM; in assay [4], 500 to 5000 nM.

Regarding `Cn1cc(-c2ccc3c(c2)S(=O)(=O)NC3)c2ccccc2c1=O` [Example 2, 4-(1,1-dioxo-2,3-dihydro-1,2-benzothiazol-6-yl)-2-methylisoquinolin-1-one], the half-inhibitory concentration (IC50) is above 5000 nM in assay [1], 500 to 5000 nM in assay [2], above 5000 nM in assay [3] and 500 to 5000 nM in assay [4].

For the molecule `COc1cc(-c2cc(NS(C)(=O)=O)c3nc(C)n(Cc4ccc(F)cc4)c3c2)cn(C)c1=O` [Example 38, N-[1-[(4-fluorophenyl)methyl]-6-(5-methoxy-1-methyl-6-oxopyridin-3-yl)-2-methylbenzimidazol-4-yl]methanesulfonamide], the IC50 in assay [1] was above 5000 nM; in assay [2], at most 500 nM; in assay [3], at most 500 nM; in assay [4] it was at most 500 nM.

Take `Cc1cc(-c2cc(NS(C)(=O)=O)c3c(F)nn(CC4CC4)c3c2)cn(C)c1=O` [Example 66, N-[1-(cyclopropylmethyl)-6-(1,5-dimethyl-6-oxopyridin-3-yl)-3-fluoroindazol-4-yl]methanesulfonamide]: the IC50 in assay [1] is above 5000 nM; in assay [2] it was at most 500 nM; in assay [3], at most 500 nM; in assay [4], at most 500 nM.

Turning to `Cc1cc(-c2cc(NS(C)(=O)=O)c3ccn(Cc4ccccc4)c3c2)cn(C)c1=O` [Example 18, N-[1-benzyl-6-(1,5-dimethyl-6-oxopyridin-3-yl)indol-4-yl]methanesulfonamide], the IC50 in assay [1] was 500 to 5000 nM; in assay [2], at most 500 nM; in assay [3] it was at most 500 nM; in assay [4] it was at most 500 nM.

In the case of `Cc1cc(-c2cc(NS(C)(=O)=O)c3oc(=O)n(Cc4ccc(F)cc4)c3c2)cn(C)c1=O` [Example 102, N-[5-(1,5-dimethyl-6-oxopyridin-3-yl)-3-[(4-fluorophenyl)methyl]-2-oxo-1,3-benzoxazol-7-yl]methanesulfonamide], the IC50 in assay [1] is above 5000 nM; in assay [2], at most 500 nM; in assay [3], at most 500 nM; in assay [4], at most 500 nM.

On to `Cc1cc(-c2cc(NS(C)(=O)=O)c3nc(C)n(Cc4ccccc4)c3c2)cn(C)c1=O` [Example 34, N-[1-benzyl-6-(1,5-dimethyl-6-oxopyridin-3-yl)-2-methylbenzimidazol-4-yl]methanesulfonamide], for which the IC50 in assay [1] is above 5000 nM; in assay [2], at most 500 nM; in assay [3] it was at most 500 nM; in assay [4] it was at most 500 nM.

As for `Cc1cc(-c2cc3c(S(C)(=O)=O)nn(C)c3cc2OCC2CC2)cn(C)c1=O` [Example 58, 5-[6-(cyclopropylmethoxy)-1-methyl-3-methylsulfonylindazol-5-yl]-1,3-dimethylpyridin-2-one], the IC50 in assay [1] is above 5000 nM; in assay [2], at most 500 nM; in assay [3], at most 500 nM; in assay [4], at most 500 nM.

For the molecule `Cc1cc(-c2cc(NS(C)(=O)=O)c3ncn(Cc4cccc(F)c4)c3c2)cn(C)c1=O` [Example 32, N-[6-(1,5-dimethyl-6-oxopyridin-3-yl)-1-[(3-fluorophenyl)methyl]benzimidazol-4-yl]methanesulfonamide], the IC50 was 500 to 5000 nM in assay [1], at most 500 nM in assay [2], at most 500 nM in assay [3] and at most 500 nM in assay [4].

For the molecule `CCS(=O)(=O)c1cc(-c2cc(OC)c(=O)n(C)c2)cc2c1nc(C)n2Cc1ccccc1` [Example 68, 5-(3-benzyl-7-ethylsulfonyl-2-methylbenzimidazol-5-yl)-3-methoxy-1-methylpyridin-2-one], the IC50 in assay [1] is above 5000 nM; in assay [2], at most 500 nM; in assay [3] it was 500 to 5000 nM; in assay [4] it was 500 to 5000 nM.

The values are drawn from patent US10807982B2, “Bromodomain inhibitors” (CELGENE QUANTICEL RESEARCH, INC., priority 2015, dated 2020).
